According to patent US9216181B2 (Southwest Research Institute, priority 2011, dated 2015):
Values joined by “and” are separate entries in the source; they are usually repeats but may differ in a detail not shown here. Equal values may be shown once. Where a name gives a salt, the structure may show the parent alone. Read-outs that look alike come from different tables or passages of the source.

What was measured:
BMP2 = experiment: Quantitative PCR (TaqMan, ΔΔCt) of BMP2 in human mesenchymal stem cells; assay type: cell-based; settings: Homo sapiens, Mesenchymal stem cells, BMP2 mRNA, hMSC, 10 μM, vs untreated, 18S reference, read-out: q-PCR Fold increase
Protocol: (§1) Human mesenchymal stem cells (LONZA, Catalog PT2501) were maintained in Mesenchymal stem cells basal media (MSCBM CAT#PT-3238). Early passage cells were plated in triplicate at 2×10^4 cells/cm^2 using six well tissue culture plates and grown in humidified 5% CO2 at 37° C. for 24 hours. Spent media was replaced by assay media of drugs to be tested in same media as above at 10 μM final concentration. Untreated cells were used as the control group. Total RNA were prepared using either TRI Reagent (Ambion, Cat. 9738), for subsequent TaqMan gene expression qPCR of BMP2. RNA concentration and integrity was assessed by absorbance 260/280 and electrophoresis in 1% Agarose with formaldehyde loading dye. For TaqMan gene expression, cDNA was synthesized from 2 μg of total RNA using the High Capacity cDNA Reverse Transcription Kit (Applied Biosystems, Cat. 4368814). The resulting cDNA were diluted 1:100 for TaqMan and amplified by real-time quantitative PCR. Gene-specific fluorescent labeled TaqMan primers for FAM-BMP2 (Applied Biosystems, Hs00154192.m1) and TaqMan reference VIC-18S ribosomal RNA (Applied Biosystems, 4310893E) were used to target gene of interest. A cocktail of universal master mix (Applied Biosystems, 4369016) were prepared individually for both set of primers which contained Taq Polymerase, dNTPs, and buffer. Template cDNA's were added separately to respective individual wells in triplicate samples. The PCR were performed on StepOne Plus Real Time System instrument (Applied Biosystems). The amplification program consisted of 1 cycle of 95° C. with 10 minute hold (hot start) followed by 50 cycles of 95° C. with 15 second annealing hold and 1 minute 60° C. specified acquisition hold. The Ct value of endogenous reference gene (i.e. 18 s) was used to control for input RNA and then used to normalize target gene (i.e. BMP2) tested from the same cDNA sample to calculate the Δ Ct, and then calibrated to an internal reference sample. Change in gene expression was determined by the expression ΔΔCt relative method.
18 compounds were confirmed positive by the more stringent qPCR techniques. […] Included in the tables is the target or common medical use for each compounds.

BMP-2 [1] = experiment: Real time PCR of BMP-2 gene expression in human MSC (Cells-to-Ct); assay type: cell-based; settings: BMP-2 mRNA, hMSC, 5-10 μM, 24 hours, vs untreated
Protocol: Early passage human mesenchymal stem cells (MSC) were thawed from one frozen cryo-vial and seeded into two T-75 tissue culture flasks and incubated at 37° C. for 48 hours in Alpha MEM with 10% FBS. After three days and one re-feeding, the cells were trypsinized and re-suspended in pre-warmed media at 5×10^4 cells/mL to provide 5,000 cells per well in a 96 well plate and incubated overnight at 37° C. in 5% CO2.
Each well was washed in cold PBS, lysed at room temperature for five minutes, and stop reagent added to each well to stop the lysis reaction. The final lysate was kept cold at 4° C. and used immediately as the RNA template for the reverse transcription cDNA synthesis following the TAQMAN GENE EXPRESSION CELLS TO CT KIT instructions.
The cDNA synthesis was prepared on a separate sterile 96-well PCR plate and performed on the Step One Plus Real Time PCR System instrument (Applied Biosystems) with the programming set at 37° C. for 60 minutes and an inactivation hold of 95° C. for five minutes. The final cDNA reaction was kept cold and used as the template for the TAQMAN GENE Real-Time PCR step following the recommended instructions for TAQMAN GENE EXPRESSION CELLS TO CT KIT assay. […] Template cDNA's were added separately to respective individual wells in replicate samples.
The PCR was performed on the STEPONEPLUS Real-Time System instrument (Applied Biosystems). The amplification program consisted of 1 cycle of 95° C. with 10 minute hold (hot start) and followed by 50 cycles of 95° C. with 15-second annealing hold and 1-minute 60° C. specified acquisition hold.

BMP-2 [2] = experiment: BMP-2 fold change of JHU library compounds, confirmed by qPCR; assay type: cell-based, human; settings: JHU library compounds; non-treated = 1.00
Source text: To further verify the technique, a 2T3 mouse pre-osteoblast cell line derived from calvaria courtesy of Dr. Steve Harris, UTHSCSA, was utilized to visually screen the compounds of the BIOMOL library and JHU libraries, purchased from John Hopkins University including 2387 compounds (solution in wells). Specifically, Murine 2T3 were thawed from one frozen cryovial and re-seeded into two T-75 tissue culture flasks grown in Alpha MEM with 10% FBS, Glutamine, and Pen/Strip antibiotics. Cells were incubated in a humidified 37° C. under 5% CO2 for 48 hours or when cells reached 80% confluence. After reaching confluency, the 2T3 were trypsinized and resuspended in pre-warm growth media to a cell density of 5×10^4 cells/mL. Approximately 100 uL of cell suspension was seeded to a 96 well plate to give a final 5,000 cells per well. Plate was incubated overnight at 37° C. and spent media was aspirated and replace with 100 uL of growth media with 5-10 uM of presumptive drug compounds. A set of controls were untreated and treated with 10 uM of Lovastatin to be used as a visual reference morphological screening.
as §1, with “Total RNA were prepared using either TRI Reagent (Ambion, Cat. 9738), for subsequent TaqMan gene expression qPCR of BMP2.” left out, “Gene-specific fluorescent labeled TaqMan primers for FAM-BMP2 (Applied Biosystems, Hs00154192.m1) and TaqMan reference VIC-18S ribosomal RNA (Applied Biosystems, 4310893E) were used to target gene of interest.” left out, “The Ct value of endogenous reference gene (i.e. 18 s) was used to control for input RNA and then used to normalize target gene (i.e. BMP2) tested from the same cDNA sample to calculate the Δ Ct, and then calibrated to an internal reference sample.” left out
Included in the tables is the target or common medical use for each compounds.

[3] = positive control compounds (Table 1)

Row | Compound | Fold change (BMP-2) (BMP-2 [2]) | also measured
1 | CC(=O)O[C@H]1C(=O)[C@@]2(C)[C@H]([C@H](OC(=O)c3ccccc3)[C@]3(O)C[C@H](OC(=O)[C@H](O)[C@@H](NC(=O)c4ccccc4)c4ccccc4)C(C)=C1C3(C)C)[C@]1(OC(C)=O)CO[C@@H]1C[C@@H]2O [Taxol] | – | fold induction at 10 µM (BMP2; [3]): 4; RT PCR Fold increase (BMP-2 [1]; [3]): 3.7 fold
2 | Proflavine hemisulfate salt hydrate | 177.00 fold | –
3 | C=C(NC(=O)C(=C)NC(=O)c1csc(C2=N[C@@H]3c4csc(n4)[C@H]4NC(=O)c5csc(n5)[C@H]([C@](C)(O)[C@@H](C)O)NC(=O)[C@H]5CSC(=N5)/C(=C/C)NC(=O)[C@H]([C@@H](C)O)NC(=O)c5csc(n5)[C@]3(CC2)NC(=O)[C@H](C)NC(=O)C(=C)NC(=O)[C@H](C)NC(=O)[C@H]([C@@H](C)CC)N[C@@H]2C=Cc3c([C@H](C)O)cc(nc3[C@H]2O)C(=O)O[C@@H]4C)n1)C(N)=O [Thiostrepton] | 5.00 fold | –
4 | C[CH2][Hg][S]c1ccccc1C(=O)[O-].[Na+] [THIMEROSAL] | 23.00 fold | –
5 | CNCCCC12CCC(c3ccccc31)c1ccccc12 [Maprotiline] | – | fold induction at 10 µM (BMP2; BIOMOL library (Table 2)): 2.4; RT PCR Fold increase (BMP-2 [1]; BIOMOL library (Table 2)): 3.6 fold
6 | Oc1ccc(CCN2CCC(Nc3nc4ccccc4n3Cc3ccc(F)cc3)CC2)cc1 [Desmethyl astemizole] | 75.00 fold | –
7 | CC(C)C[C@H](NC(=O)[C@H](Cc1ccccc1)NC(=O)c1cnccn1)B(O)O [Bortezomib] | – | fold induction at 10 µM (BMP2; [3]): 2.4; RT PCR Fold increase (BMP-2 [1]; [3]): 15.4 fold
8 | C=C1CC[C@H](O)C/C1=C/C=C1\CCC[C@]2(C)[C@@H]([C@H](C)CCCC(C)(C)O)CC[C@@H]12 [Calcifediol] | – | fold induction at 10 µM (BMP2; BIOMOL library (Table 2)): 3.4; RT PCR Fold increase (BMP-2 [1]; BIOMOL library (Table 2)): 6.0 fold
9 | C=C(C)[C@H]1Cc2c(ccc3c2O[C@@H]2COc4cc(OC)c(OC)cc4[C@@H]2C3=O)O1 [ROTENONE] | 61.00 fold | –
10 | CC(C)(C)c1ccc(C(O)CCCN2CCC(C(O)(c3ccccc3)c3ccccc3)CC2)cc1 (centres unmarked) [Terfenadine] | – | fold induction at 10 µM (BMP2; BIOMOL library (Table 2)): 10.4; RT PCR Fold increase (BMP-2 [1]; BIOMOL library (Table 2)): 13.9 fold
11 | CC(=O)[O-].CC(=O)[O-].[Cd+2] [Cadmium Acetate] | 8.00 fold | –
12 | CC[C@@]1(O)C(=O)OCc2c1cc1n(c2=O)Cc2cc3ccccc3nc2-1 [Camptothecin] | – | fold induction at 10 µM (BMP2; BIOMOL library (Table 2)): 4; RT PCR Fold increase (BMP-2 [1]; BIOMOL library (Table 2)): 29.0 fold
13 | N=C(N)N1CCc2ccccc2C1 [Debrisoquin sulfate] | – | fold induction at 10 µM (BMP2; BIOMOL library (Table 2)): 6.2; RT PCR Fold increase (BMP-2 [1]; BIOMOL library (Table 2)): 8.2 fold
14 | CC(=O)OCC(=O)[C@@]1(O)CC[C@H]2[C@@H]3C[C@H](C)C4=CC(=O)C=C[C@]4(C)[C@H]3[C@@H](O)C[C@@]21C [6alpha-METHYLPREDNISOLONE ACETATE] | 35.00 fold | –
15 | C[C@@H]1C[C@@H]([C@H](O)CC2CC(=O)NC(=O)C2)C(=O)[C@@H](C)C1 [Cycloheximide] | 34.00 fold | –
16 | O=P([O-])([O-])OC1C(OP(=O)([O-])[O-])C(OP(=O)([O-])[O-])C(OP(=O)([O-])[O-])C(OP(=O)([O-])[O-])C1OP(=O)([O-])[O-].[Na+].[Na+].[Na+].[Na+].[Na+].[Na+].[Na+].[Na+].[Na+].[Na+].[Na+].[Na+] (centres unmarked) [Phytic acid, dodecasodium salt hydrate] | 15.00 fold | –

Row | Compound | Fold change (BMP-2) (BMP-2 [2]) | also measured
17 | CC[C@H]1CN2CCc3cc(OC)c(OC)cc3[C@@H]2C[C@@H]1C[C@H]1NCCc2cc(OC)c(OC)cc21 [Emetine] | 220.00 fold | –
18 | CCC1=C[C@@H]2CN(C1)Cc1c([nH]c3ccccc13)[C@@](C(=O)OC)(c1cc3c(cc1OC)N(C)[C@H]1[C@@](O)(C(=O)OC)[C@H](OC(C)=O)[C@]4(CC)C=CCN5CC[C@]31[C@@H]54)C2 [Vinorelbine tartrate] | 803.00 fold | –
19 | CC(C)(C)CC(C)(C)c1ccc(O)c(Cc2ccc(Cl)cc2Cl)c1 [Clofoctol] | 11.00 fold | –
20 | Nc1c2ccccc2nc2ccccc12 [Aminacrine (9-Aminoacridine)] | 5762.00 fold | –
21 | O=[N+]([O-])c1ccc(O)c2ncccc12 [Nitroxoline (8-hydroxy 5-nitroquinoline)] | 18.00 fold | –
22 | Brilliant Blue | 111.00 fold | –
23 | Cc1cc(/C=C/c2ccc3cc(N(C)C)ccc3[n+]2C)c(C)n1-c1ccccc1 [Pyrvinium pamoate] | 398.00 fold | –
24 | CC[C@@]1(O)C(=O)OCc2c1cc1n(c2=O)Cc2cc3c(CN(C)C)c(O)ccc3nc2-1 [Topotecan] | 365.00 fold | –
25 | COc1ccc(-c2cc(=O)c3c(O)cc(O[C@@H]4O[C@H](CO[C@@H]5O[C@@H](C)[C@H](O)[C@@H](O)[C@H]5O)[C@@H](O)[C@H](O)[C@H]4O)cc3o2)cc1O [Diosmin] | 9.00 fold | –
26 | CC[C@@H](C(=O)[C@@H](C)[C@@H](O)[C@H](C)CCc1ccc(C)c(O)c1C(=O)[O-])[C@H]1O[C@](CC)([C@H]2CC[C@](O)(CC)[C@H](C)O2)C[C@@H]1C.[Na+] [Laslocid Sodium] | 4.00 fold | –
27 | COc1ccc(C[C@H]2NC[C@H](O)[C@H]2OC(C)=O)cc1 [Anisomycin] | 670.00 fold and 387.00 fold | –
28 | Verteporfin | 6.00 fold | –
29 | COc1cc(NS(C)(=O)=O)ccc1Nc1c2ccccc2nc2ccccc12 [Amsacrine] | 85.00 fold | –
30 | CN(C)C(=S)SSC(=S)N(C)C [THIRAM] | 36.00 fold | –
31 | Acriflavine hydrochloride | 1491.00 fold | –
